Structures are written as SMILES. pEC50, pIC50: −log10 of the molar value.

Among the data in patent US20260248783A1 (ASCLETIS BIOSCIENCE CO., LTD., priority 2021, published 2026) are IC50 and EC50 values, retold here.

One assay concerns the target T1, PD-1/PD-L1 (Homo sapiens, UniProt Q9NZQ7).
T1 construct: Recombinant human PD-L1 protein (19-238) with a Histag at the C-terminus; purchased AcroBiosystems PD1-H5229 (PD-L1); PD1-H5257 (PD-1)
Briefly: PD-1/PD-L1 Homogeneous Time-Resolved Fluorescence (HTRF) Binding Assay. Conditions: PD-1/PD-L1 HTRF activity; 3 nM PD1, 10 nM PD-L1, 25° C. In a few lines:
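Human PD-L1 (19-238, His-tag) 10 nM and PD-1 (25-167, Fc-tag) 3 nM preincubated 40 min with inhibitor in PBS pH 7.4, 0.05% Tween-20, 0.1% BSA, 1% DMSO, 25 °C. Eu-anti-human IgG (1 nM) and anti-His-APC (20 nM) added, 60 min, 665/620 nm ratio; IC50 from percent control activity versus log concentration.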
Background: Time-resolved FRET reads energy transfer from a long-lived donor to a nearby acceptor.

The test system of another assay is PDL1. Briefly: PDL1 Jurkat-NFAT Reporter Assay. Format: cell-based. The conditions noted are these: Homo sapiens; Hep3B-OS8-hPDL1 with Jurkat-NFAT-PD1 cells, 6 hours, luciferase. The protocol:
Example 109. PDL1 Jurkat-NFAT Reporter Assay
Preparation of Hep3B-OS8-hPDL1
(§1) 1. Hep3B-OS8-hPDL1 cells were cultured in 1640 medium supplemented with 10% fetal bovine serum, 1% penicillin and streptomycin, in which 100 μg/mL G418 and Hygromycin B were also added.
2. Cells were re-suspended with RPMI 1640 medium containing 10% FBS and the cell density was adjusted to 1.25×10^5 cells/mL.
3. Cells were seeded into 96-well flat bottom plate (1.25×10^4 cells/100 μL/well).
b. Compounds solutions preparation
4. Removed the medium from pre-plated Hep3B-OS8-PDL1 cells. Washed once with 200 μL Assay Medium.
5. Prepared the Compounds dilutions in RPMI 1640 medium with 10% FBS according to the Layout.
6. Added compounds into each well in a volume of 50 μL in 9 concentrations ([…])}. Keytruda will be included as positive control at the concentration of 5 μg/mL.
7. Incubated for 20-30 min at 37° C., 5% CO2.
c. Preparation of Jurkat-NFAT-PD1
8. Jurkat-NFAT-PD1 cells were cultured in 1640 medium supplemented with 10% fetal bovine serum, 1% penicillin and streptomycin, in which 1000 μg/mL Hygromycin B and […] puromycin were also added.
9. On the second day of assay, the cells were re-suspended with RPMI 1640 medium containing 10% FBS and the cell density was adjusted to 2.5×10^5 cells/mL.
10. […]

Assay [1] has as its target T2, extracellular domains of PD-L1 (Homo sapiens, UniProt Q9NZQ7).
T2 construct: specifically dimerize the extracellular domains of PD-L1
Briefly: PD-L1 Dimerization. Format: biochemical. Conditions: PD-L1-Eu and PD-L1-A2, ratio 665 nm/615 nm. As for the experimental part: Example 108. PD-L1 Dimerization
Compounds were tested in biochemical protein-protein interaction assays to determine if they can specifically dimerize the extracellular domains of PD-L1. • (1) Diluted cpd 1:3 in succession in DMSO for each column for 10 samples • (2) Transferred 0.2 μL cpds solution in each row to 384 assay plate using Echo, each column containing 2 replicates • (3) Added 20 μL prepared mixture include PD-L1-Eu and PD-L1-A2 solution to assay plate, centrifuged at 1000 rpm for 1 min. • (4) Incubated at 25° C. for […]. • (5) Read fluorescence signal on Envision 2104 plate reader. • (6) Read the Ratio (665 nm/615 nm) signal on Envision. • (7) Analyzed the raw data using the equation (V. Data analysis)

Assay [2] has as its system Hep3B-OS8-hPDL1 and T cells. Briefly: Hep3B-OS8-hPDL1 and T Cells Co-Culture Assay (IFN-γ by ELISA). The class given is cell-based. Conditions: T-cell, Hep3B-OS8-hPDL1 and human CD3+ T cells, 72 hours, read-out: Tumor and T Cell EC50. The protocol:
Example 110. Hep3B-OS8-hPDL1 and T Cells Co-Culture Assay
as §1
2. Hep3B-OS8-hPDL1 cells were harvested and treated with 10 μg/mL mitomycin C at 37° C. for 1.5 h, and the cells were then washed thoroughly with PBS for four times.
3. Cells were re-suspended with RPMI 1640 medium containing 10% FBS and the cell density was adjusted to 5×10^5 cells/mL.
4. Cells were seeded into 96-well flat bottom plate (2.5×10^4 cells/50 μL/well).
b. CD3+ T cells isolation (30 mL blood)
5. The human blood sample from an individual donor was diluted by the same volume of sterile PBS, for instance add 25 mL sterile PBS into 25 mL fresh whole blood and mix sufficiently by gentle shake.
6. Transferred 15 mL Lymphoprep medium into a new 50 mL centrifuge tube.
7. Added the diluted blood sample as soft as possible onto the surface of the Ficoll medium to make sure there is a clear dividing line between the two liquids, and the volume ratio between Ficoll and diluted blood (30 mL) is 1:2.
8. Moved the tube gently to centrifuge, at 1000×g, 25 min, 20° C., with the acceleration (5) and Min deceleration (0) settings during the centrifugation.
9. Four interfaces in all could be observed after the centrifugation, which are layers of plasma, mononuclear cells, the Ficoll medium and RBCs from top to bottom, and move the tube as gently as possible so as keep the four interfaces separated. Absorbed and transferred the second layer of mononuclear cells into another new sterile centrifuge tube carefully, and absorbed certain volume of plasma instead of the Ficoll medium if inevitable.
10. Added sterile PBS of the three times the volume of PBMCs in the tube with PBMC.
11. Washed the cells twice with 5-10 mL PBS before cell counting with cytometer. Centrifuge at 350×g, 10 min, 20° C. With the acceleration (5) and deceleration (5) settings during the centrifugation.
12. Resuspended the cells with recommended medium and adjust the density of the PBMCs to the final concentration of 5×10^7 cells/mL.
13. Isolated CD3+ T cells with EasySep™ Human T Cell Isolation Kit (STEMCELL Technologies #17951), and the cells were seeded into 96-well flat bottom plate (5×10^4 cells/100 μL/well). c. Compounds solutions preparation
14. Prepared the Compounds dilutions in RPMI 1640 medium with 10% FBS according to the Layout. 15. Added compounds into each well in a volume of 50 μL. {3 compounds (GLC01-258, GLC01-269, GLC01-465) in 7 concentrations (0.03, 0.1, 0.3, 1, 3, 10 and 30 μM) and 6 compounds (GLC01-411, GLC01-292, GLC01-445, GLC01-475, GLC01-470 and GLC01-468) in the same concentration (1 μM)}.
16. Keytruda was included as positive control, the concentration was 5 μg/mL. 17. Incubated for 72 hours at 37° C., 5% CO2.
18. Collected supernatant by centrifugation and measure IFN-γ by ELISA.
(In an ELISA, binding on a coated surface is turned into a signal by an enzyme label.)

T1 sequence (Q9NZQ7 19-238): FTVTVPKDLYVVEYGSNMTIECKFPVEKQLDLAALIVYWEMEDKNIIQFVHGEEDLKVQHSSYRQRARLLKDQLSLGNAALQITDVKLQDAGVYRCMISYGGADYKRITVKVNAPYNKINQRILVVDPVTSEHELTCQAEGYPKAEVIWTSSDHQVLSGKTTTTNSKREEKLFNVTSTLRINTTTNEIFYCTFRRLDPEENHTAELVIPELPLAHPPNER
T2 sequence (Q9NZQ7 19-238 limits assumed): as the sequence (Q9NZQ7 19-238) above

The pIC50 is the IC50 on a negative log10 scale, so that one unit is a factor of ten. Higher therefore signals a low IC50. For orientation: pEC50 means the EC50 on a negative log10 scale, so that one unit is a factor of ten. The molecule `Cn1c(CNC[C@@H]2CCC(=O)N2)cn2cc(-c3cccc(-c4cccc(-c5cc6c(=O)n(C)c(CNC[C@@H]7CCC(=O)N7)cn6c5)c4Cl)c3Cl)cc2c1=O` [Compound 74, 7,7′-(2,2′-dichloro-[1,1′-biphenyl]-3,3′-diyl)bis(2-methyl-3-(((((S)-5-oxopyrrolidin-2-yl)methyl)amino)methyl)pyrrolo[1,2-a]pyrazin-1(2H)-one)] showed a negative-log IC50 (pIC50) at PD-1/PD-L1 of 7.00 to 8.00. This molecule gave a pEC50 in the assay on PDL1 of at most 6.30.
The molecule `O=C1CC[C@@H](Cn2cnn3cc(-c4cccc(-c5cccc(-c6cc7c(=O)n(C[C@@H]8CCC(=O)N8)cnn7c6)c5Cl)c4Cl)cc3c2=O)N1` [Compound 1, 6,6′-(2,2′-dichloro-[1,1′-biphenyl]-3,3′-diyl)bis(3-((5-oxopyrrolidin-2-yl)methyl)pyrrolo[2,1-f][1,2,4]triazin-4(3H)-one)] had a pIC50 on PD-1/PD-L1 above 8.00. In the assay on PDL1, the pEC50 was above 6.30.
Turning to `Cc1cn2nc(-c3cccc(-c4cccc(-c5cc6c(=O)n(CCN[C@@H](CO)C(=O)O)c(C)cn6n5)c4Cl)c3Cl)cc2c(=O)n1CCN[C@@H](CO)C(=O)O` [Compound 57, (2S,2'S)-2,2′-((((2,2′-dichloro-[1,1′-biphenyl]-3,3′-diyl)bis(6-methyl-4-oxopyrazolo[1,5-a]pyrazine-2,5(4H)-diyl))bis(ethane-2,1-diyl))bis(azanediyl))bis(3-hydroxypropanoic acid)], the pIC50 on PD-1/PD-L1 is above 8.00. The negative-log EC50 (pEC50) in assay [1] was 7.00 to 7.30; in assay [2], above 7.30.
